Test results as given in PMC11292009, “Mapping protein binding sites by photoreactive fragment pharmacophores” (Communications Chemistry, 2024).
Entries after “also recorded” stand apart in the source; their conditions may differ.

Test system: T1, Kras G12D protein / SOS1 exchange domain
T1 construct: Cytoskeleton, Inc. (SOS1 exchange domain only) GE02
Assay: Kras-SOS exchange assay (MANT-GDP)
Assay type: biochemical
Details: for normalized signal, Kras-SOS exchange (Figure 4c PhP072 irradiation): Php072 500 uM
Protocol: MANT-GDP loading assay: Kras^G12D protein was first buffer exchanged into low magnesium buffer (20 mM HEPES-NaOH (pH 7.5), 50 mM NaCl, 0.5 mM MgCl2) using a NAP5 column (catalog no.: 17-0583-1, Cytiva). The proteins were then incubated with 20-fold molar excess of N-methylanthraniloyl (MANT)-GDP (catalog no.: 69244, Sigma-Aldrich) in loading buffer (50 mM NaCl, 20 mM HEPES-NaOH [pH 7.5], 0.5 mM MgCl2, 10 mM EDTA, and 1 mM Dithiothreitol (DTT)) in a total volume of 200 μL at 20 °C for 90 min. The reaction was stopped by adding MgCl2 to a final concentration of 10 mM, then incubated at 20 °C for 30 min. The unbound MANT-GDP was removed using the NAP-5 column equilibrated with nucleotide exchange buffer (40 mM HEPES-NaOH (pH 7.5), 50 mM NaCl, 10 mM MgCl2, 2 mM DTT).
MANT-GDP exchange assay: First the MANT-GDP bound Kras G12D protein (in a final 1 μM molar concentration) was preincubated with the inhibitor molecules for 60 min. After the preincubation the samples were exposed to UV light for 10 min with a wavelength of 366 nm. The UV-treated MANT-GDP Kras-inhibitor mix was loaded into a black 384 well microplate. The nucleotide exchange reaction was initiated by adding 100 fold molar excess of GppNHp (catalog no.: G0635, Sigma-Aldrich), a non-hydrolyzable GTP analog and the SOS1 exchange domain (catalog no.: GE02, Cytoskeleton, Inc.) protein in 0.5 μM final concentration. The change in fluorescence intensity was measured every 30 s in room temperature for 60 min on an EnSpire plate reader (PerkinElmer, Inc.). The measured fluorescence values were fitted to a single exponential function by using GraphPad Prism 8 software.

Cc1ncc(CO)c(CNC(=O)CCC2(C)N=N2)c1O [PhP072, Cc1ncc(CO)c(c1O)CNC(=O)CCC2(C)N=N2]
normalized signal, Kras-SOS exchange (Figure 4c PhP072 irradiation) (time 30 sec): 0.9874
normalized signal, Kras-SOS exchange (Figure 4c PhP072 irradiation) (time 60 sec): 0.984
normalized signal, Kras-SOS exchange (Figure 4c PhP072 irradiation) (time 90 sec): 0.9869
normalized signal, Kras-SOS exchange (Figure 4c PhP072 irradiation) (time 120 sec): 0.9755
normalized signal, Kras-SOS exchange (Figure 4c PhP072 irradiation) (time 210 sec): 0.9893
normalized signal, Kras-SOS exchange (Figure 4c PhP072 irradiation) (time 240 sec): 1.005
normalized signal, Kras-SOS exchange (Figure 4c PhP072 irradiation) (time 270 sec): 0.9931
normalized signal, Kras-SOS exchange (Figure 4c PhP072 irradiation) (time 300 sec): 0.9815
normalized signal, Kras-SOS exchange (Figure 4c PhP072 irradiation) (time 330 sec): 0.9652
normalized signal, Kras-SOS exchange (Figure 4c PhP072 irradiation) (time 360 sec): 0.9672
normalized signal, Kras-SOS exchange (Figure 4c PhP072 irradiation) (time 390 sec): 0.9659
normalized signal, Kras-SOS exchange (Figure 4c PhP072 irradiation) (time 420 sec): 0.9589
normalized signal, Kras-SOS exchange (Figure 4c PhP072 irradiation) (time 450 sec): 0.9736
normalized signal, Kras-SOS exchange (Figure 4c PhP072 irradiation) (time 480 sec): 0.978
normalized signal, Kras-SOS exchange (Figure 4c PhP072 irradiation) (time 510 sec): 0.9558
normalized signal, Kras-SOS exchange (Figure 4c PhP072 irradiation) (time 540 sec): 0.9578
normalized signal, Kras-SOS exchange (Figure 4c PhP072 irradiation) (time 570 sec): 0.9776
normalized signal, Kras-SOS exchange (Figure 4c PhP072 irradiation) (time 600 sec): 0.972
normalized signal, Kras-SOS exchange (Figure 4c PhP072 irradiation) (time 630 sec): 0.974
normalized signal, Kras-SOS exchange (Figure 4c PhP072 irradiation) (time 660 sec): 0.9647
normalized signal, Kras-SOS exchange (Figure 4c PhP072 irradiation) (time 690 sec): 0.9564
normalized signal, Kras-SOS exchange (Figure 4c PhP072 irradiation) (time 720 sec): 0.9623
normalized signal, Kras-SOS exchange (Figure 4c PhP072 irradiation) (time 750 sec): 0.9619
normalized signal, Kras-SOS exchange (Figure 4c PhP072 irradiation) (time 780 sec): 0.9405
normalized signal, Kras-SOS exchange (Figure 4c PhP072 irradiation) (time 810 sec): 0.9601
normalized signal, Kras-SOS exchange (Figure 4c PhP072 irradiation) (time 840 sec): 0.9458
normalized signal, Kras-SOS exchange (Figure 4c PhP072 irradiation) (time 870 sec): 0.9534
normalized signal, Kras-SOS exchange (Figure 4c PhP072 irradiation) (time 900 sec): 0.9403
normalized signal, Kras-SOS exchange (Figure 4c PhP072 irradiation) (time 930 sec): 0.9459
normalized signal, Kras-SOS exchange (Figure 4c PhP072 irradiation) (time 960 sec): 0.9381
normalized signal, Kras-SOS exchange (Figure 4c PhP072 irradiation) (time 990 sec): 0.9447
normalized signal, Kras-SOS exchange (Figure 4c PhP072 irradiation) (time 1020 sec): 0.9591
normalized signal, Kras-SOS exchange (Figure 4c PhP072 irradiation) (time 1050 sec): 0.9368
normalized signal, Kras-SOS exchange (Figure 4c PhP072 irradiation) (time 1080 sec): 0.9576
normalized signal, Kras-SOS exchange (Figure 4c PhP072 irradiation) (time 1110 sec): 0.9476
normalized signal, Kras-SOS exchange (Figure 4c PhP072 irradiation) (time 1140 sec): 0.9304
normalized signal, Kras-SOS exchange (Figure 4c PhP072 irradiation) (time 1170 sec): 0.9558
normalized signal, Kras-SOS exchange (Figure 4c PhP072 irradiation) (time 1200 sec): 0.9429
normalized signal, Kras-SOS exchange (Figure 4c PhP072 irradiation) (time 1230 sec): 0.9405
normalized signal, Kras-SOS exchange (Figure 4c PhP072 irradiation) (time 1260 sec): 0.9391
normalized signal, Kras-SOS exchange (Figure 4c PhP072 irradiation) (time 1290 sec): 0.9393
normalized signal, Kras-SOS exchange (Figure 4c PhP072 irradiation) (time 1320 sec): 0.944
normalized signal, Kras-SOS exchange (Figure 4c PhP072 irradiation) (time 1350 sec): 0.9654
normalized signal, Kras-SOS exchange (Figure 4c PhP072 irradiation) (time 1380 sec): 0.9701
normalized signal, Kras-SOS exchange (Figure 4c PhP072 irradiation) (time 1410 sec): 0.9426
normalized signal, Kras-SOS exchange (Figure 4c PhP072 irradiation) (time 1440 sec): 0.9472
normalized signal, Kras-SOS exchange (Figure 4c PhP072 irradiation) (time 1470 sec): 0.9361
normalized signal, Kras-SOS exchange (Figure 4c PhP072 irradiation) (time 1500 sec): 0.939
normalized signal, Kras-SOS exchange (Figure 4c PhP072 irradiation) (time 1530 sec): 0.9519
normalized signal, Kras-SOS exchange (Figure 4c PhP072 irradiation) (time 1560 sec): 0.9436
normalized signal, Kras-SOS exchange (Figure 4c PhP072 irradiation) (time 1590 sec): 0.9444
normalized signal, Kras-SOS exchange (Figure 4c PhP072 irradiation) (time 1620 sec): 0.9461
normalized signal, Kras-SOS exchange (Figure 4c PhP072 irradiation) (time 1650 sec): 0.9444
normalized signal, Kras-SOS exchange (Figure 4c PhP072 irradiation) (time 1680 sec): 0.9402
normalized signal, Kras-SOS exchange (Figure 4c PhP072 irradiation) (time 1710 sec): 0.948
normalized signal, Kras-SOS exchange (Figure 4c PhP072 irradiation) (time 1740 sec): 0.9364
normalized signal, Kras-SOS exchange (Figure 4c PhP072 irradiation) (time 1770 sec): 0.939
normalized signal, Kras-SOS exchange (Figure 4c PhP072 irradiation) (time 1800 sec): 0.9328
normalized signal, Kras-SOS exchange (Figure 4c PhP072 irradiation) (time 1830 sec): 0.9307
normalized signal, Kras-SOS exchange (Figure 4c PhP072 irradiation) (time 1860 sec): 0.9265
normalized signal, Kras-SOS exchange (Figure 4c PhP072 irradiation) (time 1890 sec): 0.9579
normalized signal, Kras-SOS exchange (Figure 4c PhP072 irradiation) (time 1920 sec): 0.9312
normalized signal, Kras-SOS exchange (Figure 4c PhP072 irradiation) (time 1950 sec): 0.9362
normalized signal, Kras-SOS exchange (Figure 4c PhP072 irradiation) (time 1980 sec): 0.9324
normalized signal, Kras-SOS exchange (Figure 4c PhP072 irradiation) (time 2010 sec): 0.9475
normalized signal, Kras-SOS exchange (Figure 4c PhP072 irradiation) (time 2040 sec): 0.9452
normalized signal, Kras-SOS exchange (Figure 4c PhP072 irradiation) (time 2070 sec): 0.9435
normalized signal, Kras-SOS exchange (Figure 4c PhP072 irradiation) (time 2100 sec): 0.9537
normalized signal, Kras-SOS exchange (Figure 4c PhP072 irradiation) (time 2130 sec): 0.9458
normalized signal, Kras-SOS exchange (Figure 4c PhP072 irradiation) (time 2160 sec): 0.9297
normalized signal, Kras-SOS exchange (Figure 4c PhP072 irradiation) (time 2190 sec): 0.9168
normalized signal, Kras-SOS exchange (Figure 4c PhP072 irradiation) (time 2220 sec): 0.941
normalized signal, Kras-SOS exchange (Figure 4c PhP072 irradiation) (time 2250 sec): 0.934
normalized signal, Kras-SOS exchange (Figure 4c PhP072 irradiation) (time 2280 sec): 0.9076
normalized signal, Kras-SOS exchange (Figure 4c PhP072 irradiation) (time 2310 sec): 0.9404
normalized signal, Kras-SOS exchange (Figure 4c PhP072 irradiation) (time 2340 sec): 0.9263
normalized signal, Kras-SOS exchange (Figure 4c PhP072 irradiation) (time 2370 sec): 0.9501
normalized signal, Kras-SOS exchange (Figure 4c PhP072 irradiation) (time 2400 sec): 0.9106
normalized signal, Kras-SOS exchange (Figure 4c PhP072 irradiation) (time 2430 sec): 0.9173
normalized signal, Kras-SOS exchange (Figure 4c PhP072 irradiation) (time 2460 sec): 0.928
normalized signal, Kras-SOS exchange (Figure 4c PhP072 irradiation) (time 2490 sec): 0.9153
normalized signal, Kras-SOS exchange (Figure 4c PhP072 irradiation) (time 2520 sec): 0.9464
normalized signal, Kras-SOS exchange (Figure 4c PhP072 irradiation) (time 2550 sec): 0.9246
normalized signal, Kras-SOS exchange (Figure 4c PhP072 irradiation) (time 2580 sec): 0.9142
normalized signal, Kras-SOS exchange (Figure 4c PhP072 irradiation) (time 2910 sec): 0.92
normalized signal, Kras-SOS exchange (Figure 4c PhP072 irradiation) (time 2940 sec): 0.9177
normalized signal, Kras-SOS exchange (Figure 4c PhP072 irradiation) (time 2970 sec): 0.9062
normalized signal, Kras-SOS exchange (Figure 4c PhP072 irradiation) (time 3000 sec): 0.928
normalized signal, Kras-SOS exchange (Figure 4c PhP072 irradiation) (time 3030 sec): 0.9131
normalized signal, Kras-SOS exchange (Figure 4c PhP072 irradiation) (time 3060 sec): 0.9065
normalized signal, Kras-SOS exchange (Figure 4c PhP072 irradiation) (time 3090 sec): 0.9086
normalized signal, Kras-SOS exchange (Figure 4c PhP072 irradiation) (time 3120 sec): 0.9109
normalized signal, Kras-SOS exchange (Figure 4c PhP072 irradiation) (time 3150 sec): 0.9207
normalized signal, Kras-SOS exchange (Figure 4c PhP072 irradiation) (time 3180 sec): 0.8921
normalized signal, Kras-SOS exchange (Figure 4c PhP072 irradiation) (time 3210 sec): 0.9129
normalized signal, Kras-SOS exchange (Figure 4c PhP072 irradiation) (time 3240 sec): 0.8834
normalized signal, Kras-SOS exchange (Figure 4c PhP072 irradiation) (time 3270 sec): 0.9149
normalized signal, Kras-SOS exchange (Figure 4c PhP072 irradiation) (time 3300 sec): 0.9074
normalized signal, Kras-SOS exchange (Figure 4c PhP072 irradiation) (time 3330 sec): 0.9207
Effect on SOS1-mediated nucleotide exchange of KRas (prior to irradiation): little effect
Effect on SOS1-mediated nucleotide exchange of KRas (upon irradiation (366 nm, 10 min)): fully restores KRas function to the control level; also recorded: restore KRas function
